Test results: patent publication US20260028673A1, “PR[…] OF TCF1+ […]-CELLS IN SEVERE COVID-19 AS MEDIATED BY INTERLEUKIN 12 (IL-12)” (priority 2022, published 2026)
“Also recorded” adds a separate entry of the source.

Experiments:
IL12p40 = IL12p40 (Homo sapiens, UniProt P29460); format: cell-based; conditions: severe sera, 6 days, FIG. 9D
TCF-1 = conditions: reference 67; transcriptional level, by inhibiting DNA methyltransferases; cited from earlier work
IL-12 production = conditions: reference 51; cited from earlier work
COVID-19 = conditions: reference 50; cited from earlier work

IL12p40, sequence (P29460 23-328): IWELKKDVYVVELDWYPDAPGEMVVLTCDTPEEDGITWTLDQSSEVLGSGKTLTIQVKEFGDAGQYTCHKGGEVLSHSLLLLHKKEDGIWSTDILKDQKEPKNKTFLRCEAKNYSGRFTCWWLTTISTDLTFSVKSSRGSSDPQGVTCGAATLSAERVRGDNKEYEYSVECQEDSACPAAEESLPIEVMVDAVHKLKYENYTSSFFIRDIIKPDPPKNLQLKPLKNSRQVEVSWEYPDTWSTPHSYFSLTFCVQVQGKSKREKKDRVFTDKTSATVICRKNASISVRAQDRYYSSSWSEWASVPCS
IL12p40, sequence (P29459 23-219, further chain): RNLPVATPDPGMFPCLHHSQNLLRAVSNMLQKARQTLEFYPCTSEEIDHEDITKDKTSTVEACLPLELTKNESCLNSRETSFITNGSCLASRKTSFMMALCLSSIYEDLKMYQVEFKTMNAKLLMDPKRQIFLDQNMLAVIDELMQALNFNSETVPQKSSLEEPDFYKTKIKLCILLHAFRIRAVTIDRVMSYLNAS

Row | Compound | TCF1 expression in naïve, TCM, TEM and TEMRA T-cell subsets (IL12p40) | TCF-1 (TCF1) expression (TCF-1) | IL-12 production (IL-12 production) | Success in treating COVID-19 patients (COVID-19)
1 | IL-12: proinflammatory cytokine interleukin 12 | restored | down-regulate TCF-1 at the transcriptional level; also recorded: downregulate TCF1 | – | –
2 | C[C@@H]1C[C@H]2[C@@H]3CCC4=CC(=O)C=C[C@]4(C)[C@@]3(F)[C@@H](O)C[C@]2(C)[C@@]1(O)C(=O)CO [dexamethasone] | – | – | inhibits IL-12 production | proven successful
